# Like-named read-outs stand apart in the source and are kept apart here.
# Key:
# [1] = system: Cushing's syndrome patients; settings: in vivo
# Procedure: The risk of experiencing at least one episode of hypokalemia (potassium level <3.5 mEq/L) after 7 to 14 Days of exposure to KORLYM (mifepristone) was evaluated using stepwise multivariable logistic regression and single-variable logistic regression models. The following independent factors were evaluated for potential association with hypokalemia based on the biology of the disease: total cortisol at Day 1, ACTH at Day 1, and potassium level at Day 1.
# The risk of experiencing at least one episode of hypokalemia (potassium level <3.5 mmol/L) after 28 Days of exposure to KORLYM was evaluated using stepwise multivariable logistic regression and single-variable logistic regression models. The following independent factors were evaluated for potential association with hypokalemia based on the biology of the disease: total cortisol at Day 1 and Day 14 (cort_01 and cort_14), ACTH at Day 1 and Day 14 (ACTH_01 and ACTH_14), and potassium levels at Day 1 and Day 14 (K_01 and K_14).
# Patients were defined to have severe/recurrent hypokalemia for this analysis if they had at least one value of potassium of 2.5 mmol/L or lower, or if they had recurrent hypokalemia (hypokalemia occurring during multiple visits after Day 14 visit).
# The Cushing's syndrome study reported herein was conducted in accordance with the Declaration of Helsinki and Good Clinical Practice (GCP) according to International Conference on Harmonization (ICH) guidelines.
# (§1) Dosing Schedule Dosing was started with 300 mg of mifepristone once per day for 14 days. After 14 days, if no clinical improvement was seen but the drug was well tolerated, the dose of mifepristone was increased to 600 mg once per day. After 4 weeks of dosing at 600 mg once per day, if no clinical improvement was seen but the drug was well tolerated, the dose was increased to 900 mg once per day. Dose escalation was based on weight with the maximum dose no higher than 20 mg/kg/day. […] After 4 weeks of dosing at 900 mg once per day, if no clinical improvement was seen but the drug was well tolerated, the dose was increased to 1200 mg once per day. Study duration was 24 weeks.
# Serum electrolytes, including potassium, were measured regularly throughout the study period.
# (§2) Potassium levels were obtained on every subject at either screening or the pre-drug administration baseline visit, and then also at every scheduled post-baseline visit. Potassium levels post-baseline were therefore obtained as early as day 7 and through day 210 (week 30 was the last visit and was the 6 week follow-up visit). ACTH, and cortisol were measured at six visits (week 2 (day 14), week 6 (day 42), week 10 (day 70), week 16 (day 112), and week 24 (day 168) week 6 follow-up (day 210)).
# [2] = system: ACTH; test: ACTH levels during mifepristone treatment of Cushing's syndrome patients; type: in vivo, human
# From the text: (§3) The term “measuring the level,” in the context of cortisol, ACTH, mifepristone, or other compounds, refers to determining, detecting, or quantitating the amount, level, or concentration of, for example, cortisol, ACTH, mifepristone, or other compound in a sample obtained from a subject. Plasma or serum samples are often used for measuring ACTH or cortisol level.
# (§4) The types of samples that are suitable for ACTH determination can be serum, plasma, saliva, urine, or any other biological fluid taken from a subject. In preferred embodiments, the sample is a serum sample, or is a plasma sample. The level of ACTH can be measured using various methods, including but not limited to, immunoassays, e.g., competitive immunoassay, radioimmunoassay (MA), immunofluorometric enzyme assay, and ELISA; competitive protein-binding assays; liquid chromatography (e.g., HPLC); and mass spectrometry, e.g., high-performance liquid chromatography/triple quadrupole-mass spectrometry (LC-MS/MS). Commercial kits for measuring ACTH are readily available, e.g., from Mayo clinic (Test ID: ACTH), Siemens Healthcare Global (Immulite® 2000 ACTH assay), and Roche Molecular Diagnostics (Catalog No. 03255751190). In preferred embodiments, ACTH levels are measured using a radioimmunoassay (RIA), most preferable a two-site MA, such as performed by Quest Diagnostics (Secaucus, N.J. 07094).
# as §1, §2
# [3] = system: cortisol; test: Total serum cortisol during mifepristone treatment of Cushing's syndrome patients; type: in vivo, human
# From the text: as §3
# as §4, with “cortisol” for “ACTH”, “(LC-MS/MS).” for “(LC-MS/MS). Commercial kits for measuring ACTH are readily available, e.g., from Mayo clinic (Test ID: ACTH), Siemens Healthcare Global (Immulite® 2000 ACTH assay), and Roche Molecular Diagnostics (Catalog No. 03255751190).”, “LC-MS/MS,” for “a radioimmunoassay (RIA), most preferable a two-site MA,”
# Dosing Schedule Dosing was started with 300 mg of mifepristone once per day for 14 days. After 14 days, if no clinical improvement was seen but the drug was well tolerated, the dose of mifepristone was increased to 600 mg once per day. After 4 weeks of dosing at 600 mg once per day, if no clinical improvement was seen but the drug was well tolerated, the dose was increased to 900 mg once per day. Dose escalation was based on weight with the maximum dose no higher than 20 mg/kg/day. […]
# Potassium levels were obtained on every subject at either screening or the pre-drug administration baseline visit, and then also at every scheduled post-baseline visit. […] ACTH, and cortisol were measured at six visits (week 2 (day 14), week 6 (day 42), week 10 (day 70), week 16 (day 112), and week 24 (day 168) week 6 follow-up (day 210)).
# [4] = system: cortisol; test: 24-hour urine cortisol during mifepristone treatment of Cushing's syndrome patients; type: in vivo, human
# Procedure: as §1, §2
# [5] = system: psychotic major depression (PMD) subjects; test: Double blind psychotic major depression (PMD) trials: hypokalemia; type: in vivo, human; settings: completed double blind PMD trials
# From the text: (§5) Clinically meaningful hypokalemia (<3.1) has been reported in 16 of 821 (1.9%) mifepristone treated subjects (12 in completed double blind PMD trials, and 4 in a completed Alzheimer's trial), and in 5 of 626 (0.8%) placebo treated subjects in completed PMD trials.
# [6] = system: subjects in an Alzheimer's study; test: Alzheimer's study: hypokalemia; type: in vivo, human
# From the text: as §5
# [7] = system: mifepristone treated subjects (PMD and Alzheimer's trials); test: Completed PMD and Alzheimer's trials together: clinically meaningful hypokalemia; type: in vivo, human; settings: 16 of 821 mifepristone treated subjects
# From the text: as §5
# [8] = system: healthy volunteers; test: Previous clinical studies in healthy volunteers: adverse events; type: in vivo, human
# From the text: Hypokalemia and rash appear to be more common in subjects receiving mifepristone than in the control groups.
# [9] = system: Cushing's syndrome patients; settings: cited from earlier work
# [10] = 43 subjects with Cushing's disease
# [11] = patients who did not experience hypokalemia
smiles,measurement,setting,value
"CC#C[C@]1(O)CC[C@H]2[C@@H]3CCC4=CC(=O)CCC4=C3[C@@H](c3ccc(N(C)C)cc3)C[C@@]21C [mifepristone, 11β-(4-dimethylaminophenyl)-17β-hydroxy-17α-(1-propynyl)-estra-4,9-dien-3-one]",Severe/Recurrent Hypokalemia,"[1]; both, human",9 (20.0) n (%)
same,developed hypokalemia on or after Day 28,"[1]; both, human",6.7%
same,developed severe/recurrent hypokalemia on or after Day 28,"[1]; both, human",6.7%
same,subjects with a Potassium value ≤3.5 mmol/L at any of the six visits,"[1]; both, human",21
same,subjects with a Potassium value ≤3.5 mmol/L at any post-baseline visit,"[1]; both, human",23
same,Number with Hypokalemia (%) (Potassium ≤ 3.4 mEq/L),"[1]; both, human, 6 weeks",7 (14%)
same,Number with Hypokalemia (%) (Potassium ≤ 3.4 mEq/L),"[1]; both, human, 8 weeks",4 (8%)
same,Number with Hypokalemia (%) (Potassium ≤ 3.4 mEq/L),"[1]; both, human, 10 weeks",4 (8%)
same,Number with Hypokalemia (%) (Potassium ≤ 3.4 mEq/L),"[1]; both, human, 12 weeks",3 (6%)
same,Number with Severe Hypokalemia (%) (Potassium ≤ 2.5 mEq/L),"[1]; both, human, 12 weeks",1 (2%)
same,Number with Hypokalemia (%) (Potassium ≤ 3.4 mEq/L),"[1]; both, human, 16 weeks",5 (10%)
same,Number with Severe Hypokalemia (%) (Potassium ≤ 2.5 mEq/L),"[1]; both, human, 16 weeks",1 (2%)
same,Number with Hypokalemia (%) (Potassium ≤ 3.4 mEq/L),"[1]; both, human, 20 weeks",1 (2%)
same,Decreased potassium observed during at least one visit,"[1]; both, human, 24 weeks",about 30%
same,Number with Hypokalemia (%) (Potassium ≤ 3.4 mEq/L),"[1]; both, human, 24 weeks",4 (8%)
same,developed hypokalemia after dosing with KORLYM,"[1]; both, human, 24 weeks",42.9%
same,Number with Hypokalemia (%) (Potassium ≤ 3.4 mEq/L),"[1]; both, human, 30 weeks",3 (6%)
same,Number with Severe Hypokalemia (%) (Potassium ≤ 2.5 mEq/L),"[1]; both, human, 30 weeks",1 (2%)
same,Number with Hypokalemia (%) (Potassium ≤ 3.4 mEq/L),"[1]; both, human, 1 day",2 (4%)
same,Number with Hypokalemia (%) (Potassium ≤ 3.4 mEq/L),"[1]; both, human, 7 day",2 (4%)
same,Number with Hypokalemia (%) (Potassium ≤ 3.4 mEq/L),"[1]; both, human, 14 day",8 (16%)
same,Number with Severe Hypokalemia (%) (Potassium ≤ 2.5 mEq/L),"[1]; both, human, 14 day",1 (2%)
same,"share of subjects with a Potassium value ≤3.5 mmol/L as early as day 14, all post-baseline values","[1]; both, human, 14 days",48%
same,share of those subjects with a Potassium value ≤3.5 mmol/L as early as day 14,"[1]; both, human, 14 days",38%
same,Number with Hypokalemia (%) (Potassium ≤ 3.4 mEq/L),"[1]; both, human, 28 day",10 (20%)
same,Number of Subjects Hypokalemic <=3.5 mmol/L,"[1]; both, human, 210 day",3
same,Number of Subjects Non-Hypokalemic >3.5 mmol/L,"[1]; both, human, 210 day",37
same,patients with at least one potassium value of 2.5 mmol/L or lower,[1],two
same,severity of hypokalemia,[1],generally mild to moderate
same,subjects with a day 7 Potassium value ≤3.5 mmol/L,[1],three
same,change of ACTH during mifepristone treatment,[2]; [10],increased about two-fold
same,"Ratio of ACTH Visit Change Values from Baseline per Baseline (ACTH_CHG/ACTH Baseline), Mean ± SD","[2]; Day 42, Hypokalemic (N 6)",2.50 ± 0.61 (6)
same,"Ratio of ACTH Visit Change Values from Baseline per Baseline (ACTH_CHG/ACTH Baseline), Mean ± SD","[2]; Day 168, Hypokalemic (N 5)",3.30 ± 2.54 (5)
same,rise of ACTH levels following an initial increase in mifepristone dose (FIG. 1),[2]; [11],about 25 pg/mL
same,change of serum cortisol during mifepristone treatment,[3]; [10],increased to a smaller degree
same,total serum cortisol levels,"[3]; patients who did not experience hypokalemia, early on during mifepristone treatment (e.g., day 14 and/or day 42)",below 1000 nmol/L
same,total serum cortisol levels,"[3]; patients who experienced hypokalemia, early on during mifepristone treatment (e.g., day 14 and day 42)",above 1000 nmol/L
same,"24 Hour Urine Cortisol (nmol/24 hr)/ACTH Ratio Visit Values, Mean ± SD","[4]; Day 42, Non-Hypokalemic (N 35)",7.9 ± 6.0 (35)
same,"24 Hour Urine Cortisol (nmol/24 hr)/ACTH Ratio Visit Values, Mean ± SD","[4]; Day 70, Non-Hypokalemic (N 30)",17.0 ± 32.7 (30)
same,"24 Hour Urine Cortisol (nmol/24 hr)/ACTH Ratio Visit Values, Mean ± SD","[4]; Day 112, Non-Hypokalemic (N 23)",9.6 ± 16.3 (23)
same,ratios of 24-hour urine cortisol values divided by ACTH values,[4]; patients experiencing hypokalemia,greater than 20
same,ratios of 24-hour urine cortisol values divided by ACTH values,[4]; [11],less than 20
same,24 hour urine cortisol levels,"[4]; patients who did not experience hypokalemia, at all times during mifepristone treatment",below 1700 nmol/24 hr
same,24-hour urine cortisol levels,[4]; patients who experienced hypokalemia,above 2000 nmol/24 hr
same,change in 24-hour urine cortisol levels as compared to baseline,"[4]; patients who experienced hypokalemia, day 42",greater than 600 nmol/24 hr
same,subjects with clinically meaningful hypokalemia (<3.1),[5],12
same,subjects with clinically meaningful hypokalemia (<3.1),[6]; completed Alzheimer's trial,4
same,subjects with hypokalemia in the range of 2.8 to 3.5 mEq/L,"[6]; out of 33 subjects, 300 mg per day of mifepristone for 16 weeks",9
same,Clinically meaningful hypokalemia (<3.1),[7],1.9%
same,frequently reported adverse events,[8]; mifepristone administered to healthy volunteers,"headache, gastrointestinal symptoms including diarrhea, nausea and vomiting, and rash"
same,Hypokalemia and rash compared with the control groups,[8]; subjects receiving mifepristone,more common
same,patients with serum potassium levels less than 3.5 mEq/L,[9]; of 43 Cushing's syndrome patients treated with mifepristone,22
same,patients with serum potassium levels less than 2.5 mEq/L (severe hypokalemia),[9]; of the 22 of 43 patients with potassium <3.5 mEq/L,3

# Source: patent publication US11744837B2, “Use of cortisol in assessment and prophylactic treatment of hypokalemia associated with glucocorticoid receptor modulator treatment of Cushing's syndrome patients” (Corcept Therapeutics, Inc., priority 2018, dated 2023)
